Results as given in PubChem BioAssay AID194 (DTP/NCI, 2004).
Values joined by “and” are separate entries in the source; they are usually repeats but may differ in a detail not shown here. Equal values may be shown once. Inconclusive results are not listed.

Tested on: BDF1 mice, B16 melanoma s.c., survival/tumor T/C
Assay: NCI In Vivo Anticancer Drug Screen. Data for tumor model B16 Melanoma (subcutaneous) in B6D2F1 (BDF1) mice
Conditions: endpoint: median survival time, schedule: Q01DX009 (ip), higher = longer survival
Protocol: The antitumor activity of compounds was measured in mice bearing transplantable tumors. Survival or tumor size were measured and the results are expressed as the measurement made in the treated group (T) divided by the measurement made in the vehicle treated control group (C). The tumor model used in this assay is B16 Melanoma (subcutaneous) in B6D2F1 (BDF1) mice

CC1=C(/C=C/C(C)=C/C=C/C(C)=C/C(=O)O)C(C)(C)CCC1
T/C (dose: 4.0 mg/kg/injection, vehicle: saline with Tween-80): 88 % of control

NCCc1nc(-c2nc(C(=O)O)cs2)cs1
T/C (dose: 6.25 mg/kg/injection, vehicle: water): 98 % of control | T/C (dose: 12.5 mg/kg/injection, vehicle: water): 95 % of control | T/C (dose: 25.0 mg/kg/injection, vehicle: water): 91 % of control | T/C (dose: 50.0 mg/kg/injection, vehicle: water): 92 % of control | T/C (dose: 100.0 mg/kg/injection, vehicle: water): 95 % of control

O=C1c2c(O)ccc(O)c2C(=O)c2c(NCCNCCO)ccc(NCCNCCO)c21
T/C (dose: 0.25 mg/kg/injection, vehicle: other): 102 % of control | T/C (dose: 0.5 mg/kg/injection, vehicle: other): 89 % of control | T/C (dose: 0.5 mg/kg/injection, vehicle: saline with Tween-80): 120 % of control | T/C (dose: 1.0 mg/kg/injection, vehicle: other): 106 % of control | T/C (dose: 2.0 mg/kg/injection, vehicle: other): 90 % of control | T/C (dose: 2.0 mg/kg/injection, vehicle: saline with Tween-80): 102 % of control and 123 % of control

NC(CS/C(Cl)=C/Cl)C(=O)O (stereo not drawn)
T/C (dose: 1.25 mg/kg/injection, vehicle: saline): 102 % of control | T/C (dose: 2.5 mg/kg/injection, vehicle: saline): 95 % of control | T/C (dose: 5.0 mg/kg/injection, vehicle: saline): 97 % of control and 106 % of control | T/C (dose: 18.0 mg/kg/injection, vehicle: saline): 101 % of control

CC1(C)N=C(N)N=C(N)N1c1ccc(OCC(=O)N2CCOCC2)c(Cl)c1
T/C (dose: 50.0 mg/kg/injection, vehicle: saline): 103 % of control | T/C (dose: 100.0 mg/kg/injection, vehicle: saline): 114 % of control

FC(F)c1nc2nc(Cl)c(Cl)nc2[nH]1
T/C (dose: 2.0 mg/kg/injection, vehicle: Klucel (hydroxypropylcellulose) (HPC)): 106 % of control | T/C (dose: 4.0 mg/kg/injection, vehicle: Klucel (hydroxypropylcellulose) (HPC)): 114 % of control | T/C (dose: 8.0 mg/kg/injection, vehicle: Klucel (hydroxypropylcellulose) (HPC)): 97 % of control | T/C (dose: 8.0 mg/kg/injection, vehicle: other): 157 % of control | T/C (dose: 16.0 mg/kg/injection, vehicle: Klucel (hydroxypropylcellulose) (HPC)): 102 % of control | T/C (dose: 16.0 mg/kg/injection, vehicle: other): 117 % of control | T/C (dose: 32.0 mg/kg/injection, vehicle: Klucel (hydroxypropylcellulose) (HPC)): 121 % of control | T/C (dose: 32.0 mg/kg/injection, vehicle: other): 89 % of control

CCN1/C(=C/C=C/C=C/c2sc3ccccc3[n+]2CC)Sc2ccccc21
T/C (dose: 63.0 micrograms/kg/injection, vehicle: saline): 117 % of control | T/C (dose: 125.0 micrograms/kg/injection, vehicle: saline): 120 % of control

COc1cc2c(c(OC)c1OC)-c1cc3c(cc1[C@@H](OC(C)=O)[C@@H]1COC(=O)[C@H]1C2)OCO3
T/C (dose: 0.62 mg/kg/injection, vehicle: Klucel (hydroxypropylcellulose) (HPC)): 100 % of control | T/C (dose: 1.25 mg/kg/injection, vehicle: Klucel (hydroxypropylcellulose) (HPC)): 88 % of control and 89 % of control | T/C (dose: 2.5 mg/kg/injection, vehicle: Klucel (hydroxypropylcellulose) (HPC)): 97 % of control | T/C (dose: 5.0 mg/kg/injection, vehicle: Klucel (hydroxypropylcellulose) (HPC)): 105 % of control and 116 % of control | T/C (dose: 10.0 mg/kg/injection, vehicle: Klucel (hydroxypropylcellulose) (HPC)): 109 % of control
